Read-outs that look alike come from different tables or passages of the source.
Tests used:
wild type IIIB = assay: Single cycle infectivity assay in HeLa P4-2 cells, wild type virus; assay type: cell-based, HIV
[1] = system: virus containing E92Q mutation in the integrase gene; details: k = IC50(mutant)/IC50(wild type)
Method: (§1) An assay for measuring the inhibition of acute HIV infection with HeLa P4-2 cells in a single cycle infectivity assay was conducted using methods described in Joyce et al., J. Biol. Chem. 2002, 277: 45811, Hazuda et al., Science 2000, 287: 646, and Kimpton et al, J. Virol. 1992, 66: 2232. Proviral plasmids encoding viruses containing specific mutations in the integrase gene (N155H, Q148R, Y143R, E92Q, or G140S/Q148H) were generated by site-directed mutagenesis, and viruses were produced by transfecting 293T cells with the appropriate proviral plasmids.

[2] = system: virus containing G140S/Q148H mutation in the integrase gene; details: k = IC50(mutant)/IC50(wild type)
Method: as §1

[3] = system: virus containing N155H mutation in the integrase gene; details: k = IC50(mutant)/IC50(wild type)
Method: as §1

[4] = system: virus containing Q148R mutation in the integrase gene; details: k = IC50(mutant)/IC50(wild type)
Method: as §1

[5] = system: virus containing Y143R mutation in the integrase gene; details: k = IC50(mutant)/IC50(wild type)
Method: as §1

[6] = biological target: T1, recombinant integrase (HIV-1 integrase) (Human immunodeficiency virus type 1 group M subtype B, UniProt P04585); assay: HIV-1 integrase assay: strand transfer catalyzed by recombinant integrase; assay type: biochemical; details: strand transfer activity
T1 construct: Assays for the strand transfer activity of integrase were conducted in accordance with WO 02/30930 for recombinant integrase
Method: HIV-1 Integrase Assay: Strand Transfer Catalyzed by Recombinant Integrase
Assays for the strand transfer activity of integrase were conducted in accordance with WO 02/30930 for recombinant integrase. […] For example, the compounds prepared in Examples 1 to 5 were tested in the integrase assay and found to have the IC50 values in Table B. (Compounds 6A and 6B were not tested in this assay.)
Further description on conducting the assay using preassembled complexes is found in Wolfe, A. L. et al., J. Virol. 1996, 70: 1424-1432, Hazuda et al., J. Virol. 1997, 71: 7005-7011; Hazuda et al., Drug Design and Discovery 1997, 15: 17-24; and Hazuda et al., Science 2000, 287: 646-650.

HIV-1 = assay: Inhibition of acute HIV-1 infection of T-lymphoid cells (spread assay); assay type: cell-based
Method: Assay for Inhibition of HIV-1 Replication
Assays for the inhibition of acute HIV-1 infection of T-lymphoid cells were conducted in accordance with Vacca, J. P. et al, Proc. Natl. Acad. Sci. USA 1994, 91: 4096.

[7] = Human immunodeficiency virus 1, IIIB, HeLaP4-2, HeLa P4-2 cells, single cycle infectivity, wild type IIIB, read-out: wild type IIIB IC50

Structure (SMILES)	IC50 (wild type IIIB; Human immunodeficiency virus 1, IIIB, HeLaP4-2, read-out: wild type IIIB IC50 (nM)) [nM]	Number of fold shift in IC50 versus wild type IIIB, E92Q [1]	Number of fold shift in IC50 versus wild type IIIB, G140S/Q148H [2]	Number of fold shift in IC50 versus wild type IIIB, N155H [3]	Number of fold shift in IC50 versus wild type IIIB, Q148R [4]	Number of fold shift in IC50 versus wild type IIIB, Y143R [5]	IC50 (wild type IIIB; [7]) [nM]	IC50 ([6]; read-out: IC50) [nM]	IC95 (nM) in the presence of 10% FBS (HIV-1) [nM]	IC50 ([6]; IC50 (nM)) [nM]	IC50 (wild type IIIB; HeLa P4-2 cells, single cycle infectivity, wild type IIIB, read-out: wild type IIIB IC50) [nM]
Cc1nnc(C(=O)NC(C)(C)c2nc(C(=O)NCc3ccc(F)cc3)c(O)c(=O)n2C)o1 [Compound X, raltegravir, reference compound]	52	3	397	13	22	15					
CN(C)C(=O)C(=O)N(C)C1CCCCn2c1nc(C(=O)NCc1ccc(F)cc1)c(O)c2=O (single isomer, unassigned; (-)) [Compound Y, (−)N-(2-{[(4-fluorobenzyl)amino]carbonyl}-3-hydroxy-4-oxo-4,6,7,8,9,10-hexahydropyrimido[1,2-a]azepin-10-yl)-N,N′,N′-trimethylethanediamide, reference compound]		4	406	15	26	1	16				
CC[C@H]1COC[C@@H](N(C)C(=O)C(=O)N(C)C)c2nc(C(=O)NCc3ccc(F)cc3)c(O)c(=O)n21 [Compound 5A, N-((6S,10S)-6-ethyl-2-{[(4-fluorobenzyl)amino]carbonyl}-3-hydroxy-4-oxo-6,7,9,10-tetrahydro-4-pyrimido[1,2-][1,4]oxazepin-10-yl)-N N′N′-trimethylethanediamide]		2	4	1	1	1	28	46	12		
CCN(C(=O)C(=O)N(C)C)[C@@H]1CC[C@H](OC)Cn2c1nc(C(=O)NCc1ccc(F)cc1)c(O)c2=O [Compound 6A, N-ethyl-N-((7S,10R)-2-{[(4-fluorobenzyl)amino]carbonyl}-3-hydroxy-7-methoxy-4-oxo-4,6,7,8,9,10-hexahydropyrimido [1,2-a]azepin-10-yl)-N′,N′-dimethylethanediamide]		3	2	2	1	3	16		12		
CO[C@]1(C)CC[C@@H](N(C)C(=O)C(=O)N(C)C)c2nc(C(=O)NCc3ccc(F)c(C)c3)c(O)c(=O)n2C1 [Compound 2A, N-((7R,10R)-2-{[(4-fluoro-3-methylbenzyl)amino]carbonyl}-3-hydroxy-7-methoxy-7-methyl-4-oxo-4,6,7,8,9,10-hexahydropyrimido[1,2-a]azepin-10-yl)-N,N′,N′-trimethylethanediamide]		1	10	2	1	2	17	37	14		
CC[C@H]1COC[C@H](N(C)C(=O)C(=O)N(C)C)c2nc(C(=O)NCc3ccc(F)cc3)c(O)c(=O)n21 [Compound 5B]		1	11	3	1	2	42	40	10		
Cc1cc(CNC(=O)c2nc3n(c(=O)c2O)[C@H](C)COC[C@@H]3N(C)C(=O)C(=O)N(C)C)ccc1F [Compound 4C, N-((6R,10R)-2-{[(4-fluoro-3-methylbenzyl)amino]carbonyl}-3-hydroxy-6-methyl-4-oxo-6,7,9,10-tetrahydro-4H-pyrimido[1,2-d][1,4]oxazepin-10-yl)-N,N′,N′-trimethylethanediamide]			11	3	3	1	26	48	10		
Cc1ccc(CNC(=O)c2nc3n(c(=O)c2O)C(C)CCCC3N(C)C(=O)C(=O)N(C)C)cc1F (single isomer, unassigned) [Compound 3B, Cis-N-(2-{[(3-fluoro-4-methylbenzyl)amino]carbonyl}-3-hydroxy-6-methyl-4-oxo-4,6,7,8,9,10-hexahydropyrimido[1,2-a]azepin-10-yl)-N,N′,N′-trimethylethanediamide]			2	1	1	1	48		41	44	
CC[C@@H]1COC[C@H](N(C)C(=O)C(=O)N(C)C)c2nc(C(=O)NCc3ccc(F)cc3)c(O)c(=O)n21 [Compound 5C, N-((6R,10R)-6-ethyl-2-{[(4-fluorobenzyl)amino]carbonyl}-3-hydroxy-4-oxo-6,7,9,10-tetrahydro-4H-pyrimido[1,2-d][1,4]oxazepin-10-yl)-N N′N′-trimethylethanediamide]			116	7	7	2	21	41	14		
Cc1cc(CNC(=O)c2nc3n(c(=O)c2O)[C@@H](C)COC[C@H]3N(C)C(=O)C(=O)N(C)C)ccc1F [Compound 4A, N-((6S,10S)-2-{[(4-fluoro-3-methylbenzyl)amino]carbonyl}-3-hydroxy-6-methyl-4-oxo-6,7,9,10-tetrahydro-4H-pyrimido[1,2-d][1,4]oxazepin-10-yl)-N,N′,N′-trimethylethanediamide]		1	12	2	2	2	19	38	10		
CC1(C)OCCn2c1nc(C(=O)NCc1ccc(F)cc1)c(O)c2=O [Compound Z, N-[(4-fluorophenyl)methyl]-3-hydroxy-9,9-dimethyl-4-oxo-4,6,7,9-tetrahydro-6H-pyrimido[2,1-c][1,4]oxazine-2-carboxamide, reference compound]		26	>34	32	>34	1					34

— patent US8513234B2, “HIV integrase inhibitors” (Merck Sharp & Dohme Corp., priority 2008, dated 2013)
